Measurements taken from ChEMBL document CHEMBL1129121, “Design, synthesis and binding affinities of novel non-peptide mimics of somatostatin/sandostatin” (Bioorg Med Chem Lett, 1996).

Target: Somatostatin receptor
Assay: Compound was tested for its potency to displace 3-[125I]- - Tyr11-SRIF-14 from somatostatin receptor on membranes of rat cerebral cortex
Format: tissue-based

SMILES | IC50 [µM]
NCCCCCCNC[C@H]1[C@@H](OCc2ccccc2)C(OCc2ccccc2)[C@H](CO)N1CCc1c[nH]c2ccccc12 (stereo partly specified) | 14
NCCCCCCNC[C@H]1C(OCc2ccccc2)[C@H](OCc2ccccc2)[C@H](O)CN1CCc1c[nH]c2ccccc12 (stereo partly specified) | 12
NCCCCCCN1CC2[C@@H](OCc3ccccc3)[C@H](OCc3ccccc3)C1CN2CCc1c[nH]c2ccccc12 (stereo partly specified) | 15
NCCCCCCN[C@H]1CN(CCc2c[nH]c3ccccc23)[C@@H](CO)C(OCc2ccccc2)[C@@H]1OCc1ccccc1 (stereo partly specified) | 11

More lines, now with the values ahead:

IC50 [µM] | SMILES
12 | NCCCCCCN1CC2[C@@H](OCc3ccccc3)[C@H](OCc3ccccc3)[C@H](C1)N2CCc1c[nH]c2ccccc12
10 | NCCCCCCNC[C@@H]1CN(CCc2c[nH]c3ccccc23)C[C@@H](O)[C@@H](OCc2ccccc2)[C@@H]1OCc1ccccc1
